According to EP0908457B1, “3-(1,2-benzisothiazol- and isoxazol-5-Y1)-2,4(1H,3H)-pyrimidinedione or thione and 3-(1,2-benzisothiazol- and isoxazol-5-y1)-4(3H)-pyrimidinone or thione herbicidal agents” (BASF AKTIENGESELLSCHAFT, priority 1997, dated 1999):

Columns and labels:
[1] = system: Echinochloa oryzoides (Ard.) Fritsch.; experiment: Preemergence weed control under flooded paddy conditions, ECHORC (Watergrass (Calif.)); type: in vivo; conditions: preemergence, flooded paddy, rated three to four weeks after treatment; further: meaning of each grade not given here
Sagittaria pygmaea, L. = experiment: Preemergence weed control under flooded paddy conditions, SAGPY (Arrowhead (Pygmaea)); type: in vivo; conditions: preemergence, flooded paddy, rated three to four weeks after treatment; further: meaning of each grade not given here
[2] = system: Cyperus serotinus, Rottb.; experiment: Preemergence weed control under flooded paddy conditions, CYPSE (Flatsedge); type: in vivo; conditions: preemergence, rated three to four weeks after treatment; further: meaning of each grade not given here
Cyperus iria = experiment: Preemergence weed control under flooded paddy conditions, CYPIR (Rice Flatsedge); type: in vivo; conditions: preemergence, flooded paddy, rated three to four weeks after treatment; further: meaning of each grade not given here
[3] = system: Monochoria vaginalis, Presl.; experiment: Preemergence weed control under flooded paddy conditions, MOOVA (Monochoria); type: in vivo; conditions: preemergence, flooded paddy, rated three to four weeks after treatment; further: meaning of each grade not given here
[4] = system: Oryza sativa, (L.) Tebonnet; experiment: Rice tolerance to post-transplant applications under flooded paddy conditions (Example 187), ORYSAT (Rice, Tebonnet); conditions: rated three to four weeks after treatment; on herbicidal effect rating ORYSAT: meaning of each grade not given here

Structure (SMILES): COC(C)c1nsc2ccc(-n3c(=O)cc(C(F)(F)F)n(C)c3=O)cc12 (stereo not drawn) [Example 350, 2,4(1H,3H)-Pyrimidinedione, 3-[3-(1-methoxyethyl)-1,2-benzisothiazol-5-yl]-1-methyl-6-(trifluoromethyl)-]
- herbicidal effect rating, ECHORC ([1]; Rate 0.0320 kg/ha): 6.0
- herbicidal effect rating, ECHORC ([1]; Rate 0.0620 kg/ha): 7.5
- herbicidal effect rating, ECHORC ([1]; Rate 0.1250 kg/ha): 8.0
- herbicidal effect rating, ECHORC ([1]; Rate 0.2500 kg/ha): 9.0
- herbicidal effect rating, SAGPY (Sagittaria pygmaea, L.; Rate 0.0320 kg/ha): 5.5
- herbicidal effect rating, SAGPY (Sagittaria pygmaea, L.; Rate 0.0620 kg/ha): 7.0
- herbicidal effect rating, SAGPY (Sagittaria pygmaea, L.; Rate 0.1250 kg/ha): 7.5
- herbicidal effect rating, SAGPY (Sagittaria pygmaea, L.; Rate 0.2500 kg/ha): 9.0
- herbicidal effect rating, CYPSE ([2]; Rate 0.0320 kg/ha): 7.5
- herbicidal effect rating, CYPSE ([2]; Rate 0.0620 kg/ha): 8.5
- herbicidal effect rating, CYPSE ([2]; Rate 0.1250 kg/ha): 8.5
- herbicidal effect rating, CYPSE ([2]; Rate 0.2500 kg/ha): 9.0
- herbicidal effect rating, CYPIR (Cyperus iria; Rate 0.0320 kg/ha): 4.0
- herbicidal effect rating, CYPIR (Cyperus iria; Rate 0.0620 kg/ha): 5.0
- herbicidal effect rating, CYPIR (Cyperus iria; Rate 0.1250 kg/ha): 9.0
- herbicidal effect rating, CYPIR (Cyperus iria; Rate 0.2500 kg/ha): 9.0
- herbicidal effect rating, MOOVA ([3]; Rate 0.0320 kg/ha): 9.0
- herbicidal effect rating, MOOVA ([3]; Rate 0.0620 kg/ha): 9.0
- herbicidal effect rating, MOOVA ([3]; Rate 0.1250 kg/ha): 9.0
- herbicidal effect rating, MOOVA ([3]; Rate 0.2500 kg/ha): 9.0
- herbicidal effect rating ORYSAT ([4]; Rate 0.0320 kg/ha): 9.0
- herbicidal effect rating ORYSAT ([4]; Rate 0.0620 kg/ha): 9.0
- herbicidal effect rating ORYSAT ([4]; Rate 0.1250 kg/ha): 9.0
- herbicidal effect rating ORYSAT ([4]; Rate 0.2500 kg/ha): 9.0

Structure (SMILES): COC(=O)C(C)Oc1ccccc1Oc1noc2ccc(-n3c(=O)cc(C(F)(F)F)n(C)c3=O)cc12 (stereo not drawn) [Example 47, Methyl 2-{o-{{5-[3,6-dihydro-3-methyl-2,6-dioxo-4-(trifluoromethyl)-1(2H)-pyrimidinyl]-1,2-benzisoxazol-3-yl}oxy}phenoxy}propionate]
- herbicidal effect rating, ECHORC ([1]; 0.0313 kg/ha): 0.0
- herbicidal effect rating, ECHORC ([1]; 0.0625 kg/ha): 1.5
- herbicidal effect rating, ECHORC ([1]; 0.1250 kg/ha): 3.5
- herbicidal effect rating, ECHORC ([1]; 0.2500 kg/ha): 5.0
- herbicidal effect rating, SAGPY (Sagittaria pygmaea, L.; 0.0313 kg/ha): 0.0
- herbicidal effect rating, SAGPY (Sagittaria pygmaea, L.; 0.0625 kg/ha): 0.0
- herbicidal effect rating, SAGPY (Sagittaria pygmaea, L.; 0.1250 kg/ha): 0.0
- herbicidal effect rating, SAGPY (Sagittaria pygmaea, L.; 0.2500 kg/ha): 0.0
- herbicidal effect rating, CYPSE ([2]; 0.0313 kg/ha): 0.0
- herbicidal effect rating, CYPSE ([2]; 0.0625 kg/ha): 0.0
- herbicidal effect rating, CYPSE ([2]; 0.1250 kg/ha): 1.0
- herbicidal effect rating, CYPSE ([2]; 0.2500 kg/ha): 2.0
- herbicidal effect rating, CYPIR (Cyperus iria; 0.0313 kg/ha): 0.0
- herbicidal effect rating, CYPIR (Cyperus iria; 0.0625 kg/ha): 0.0
- herbicidal effect rating, CYPIR (Cyperus iria; 0.1250 kg/ha): 0.0
- herbicidal effect rating, CYPIR (Cyperus iria; 0.2500 kg/ha): 1.0
- herbicidal effect rating, MOOVA ([3]; 0.0313 kg/ha): 4.5
- herbicidal effect rating, MOOVA ([3]; 0.0625 kg/ha): 4.5
- herbicidal effect rating, MOOVA ([3]; 0.1250 kg/ha): 5.5
- herbicidal effect rating, MOOVA ([3]; 0.2500 kg/ha): 9.0
- herbicidal effect rating, ORYSAT (rice tolerance) ([4]; 0.0313 kg/ha): 1.5
- herbicidal effect rating, ORYSAT (rice tolerance) ([4]; 0.0625 kg/ha): 2.5
- herbicidal effect rating, ORYSAT (rice tolerance) ([4]; 0.1250 kg/ha): 4.0
- herbicidal effect rating, ORYSAT (rice tolerance) ([4]; 0.2500 kg/ha): 6.0
